# Results taken from US20070213340A1, “Farnesyl protein transferase inhibitors” (priority 2006, published 2007).
# Molecular target: farnesyl protein transferase (Homo sapiens, UniProt P49354+P49356)
# Test: FPT IC50 (inhibition of farnesyl protein transferase, in vitro enzyme assay)
# Type: biochemical
# Conditions: procedure of WO 95/10516
# Description: FPT IC50 (inhibition of farnesyl protein transferase, in vitro enzyme assay) was determined, and COS Cell IC50 (Cell-Based Assay) could be determined following the assay procedures described in WO 95/10516, published Apr. 20, 1995. GGPT IC50 (inhibition of geranylgeranyl protein transferase, in vitro enzyme assay), Cell Mat Assay, and anti-tumor activity (in vivo anti-tumor studies) could be determined by the assay procedures described in WO 95/10516. The disclosure of WO 95/10516 is incorporated herein by reference thereto.
row,SMILES,IC50 [nM]
1,"CCOC(=O)CCCNC(=O)[C@H]1CN(C(=O)OC(C)(C)C)CCN1C1c2ccc(Cl)cc2CCc2cccnc21 (single isomer, unassigned) [compound 6, 4-(8-Chloro-6,11-dihydro-5H-benzo[5,6]cyclohepta[1,2-b]pyridin-11-yl)-3R-(3-ethoxycarbonyl-propylcarbamoyl)-piperazine-1-carboxylic acid tert-butyl ester]",5.2
2,"CCOC(=O)CCCNC(=O)[C@H]1CN(C(=O)OC(C)(C)C)CCN1C1c2ccc(Cl)cc2CCc2cccnc21 (single isomer, unassigned) [compound 7, 4-(8-Chloro-6,11-dihydro-5H-benzo[5,6]cyclohepta[1,2-b]pyridin-11-yl)-3R-(3-ethoxycarbonyl-propylcarbamoyl)-piperazine-1-carboxylic acid tert-butyl ester]",5.5
3,"CC(C)(C)OC(=O)N1CCN(C2c3ccc(Cl)cc3CCc3cccnc32)[C@@H](C(=O)NCCCn2ccnc2)C1 (stereo partly drawn) [Compound 12, 4-(8-Chloro-6,11-dihydro-5H-benzo[5,6]cyclohepta[1,2-b]pyridin-11-yl)-3R-(3-imidazol-1-yl-propylcarbamoyl)-piperazine-1-carboxylic acid tert-butyl ester]",1.2

# More lines, now with the values ahead:
row,IC50 [nM],SMILES
1,6.3,"CC(C)(C)OC(=O)N1CCN(C2c3ccc(Cl)cc3CCc3cccnc32)[C@@H](C(=O)NCCCC(=O)O)C1 (single isomer, unassigned) [compound 9, 3R-(3-Carboxy-propylcarbamoyl)-4-(8-chloro-6,11-dihydro-5H-benzo[5,6]cyclohepta[1,2-b]pyridin-11-yl)-piperazine-1-carboxylic acid tert-butyl ester]"
2,5.5,"CC(C)(C)OC(=O)N1CCN(C2c3ccc(Cl)cc3CCc3cccnc32)[C@@H](C(=O)NCCCC(=O)O)C1 (single isomer, unassigned) [compound 8, 3R-(3-Carboxy-propylcarbamoyl)-4-(8-chloro-6,11-dihydro-5H-benzo[5,6]cyclohepta[1,2-b]pyridin-11-yl)-piperazine-1-carboxylic acid tert-butyl ester]"
